Data set [1] concerns beta-TC6. Briefly: MTT cytotoxicity assay (cell viability and proliferation). Type of data set: cell-based, mouse. To be noted: beta-TC6, 72 h treatment, concentrations up to 10 µM. The procedure: Using a MTT approach, we determined the effect on cell viability and proliferation of beta-TC6 and C2C12 cells to display potential cytotoxicity of the compounds according to the invention in vitro after a 72 h treatment.
For MTT (3-(4,5-dimethylthiazol-2-yl)-2,5-diphenyl tetrazolium bromide) transformation, 1/5 of total volume of a 5 mg/mL MTT stock solution was added to the cells as well as control wells and incubated at 37 °C, 5 % CO2 (v/v) for 1 h. Then 1/2 of total volume of MTT-stop solution was added and plates were incubated overnight in the dark at 25 °C. The optical density (OD) was measured using a multiwell spectrophotometer at a wavelength of 570 nm.

Data set [2] has as its target T1, full length Grk5 (Homo sapiens, UniProt P34947).
T1 construct: 2 µl 6/2 fold concentrated full length Grk5 (Millipore, #14-714) in reaction buffer is added to each well; purchased Millipore 14-714
Briefly: GRK5 kinase activity assay (ADP Glo Kinase Assay). Type of data set: biochemical. To be noted: Table 5. The procedure: Increasing concentrations of GRK5 are incubated together with 100 µM ATP in the absence and presence of 10 µM casein in a reaction buffer. Within this incubation non-phosphorylated casein is converted into phosphorylated casein and ATP is converted into ADP. Thereafter nonconverted ATP is digested into AMP by addition of the ADP-Glo™Reagent. Subsequently the ADP that is produced by GRK5 activity is phosphorylated back to ATP by addition of Promega Kinase Detection Reagent. These ATP levels serve as measure for the GRK5 activity and are quantified by a luciferase/luciferin reaction.
Km(ATP) was determined by measuring the GRK5 activity at increasing ATP concentrations.
The reaction buffer used was composed of: 20 mM MES pH 6.0, 1 mM DTT, 10 mM MgCl2, 0.01 % Tween20 and the reaction volume was 6µl.
Firstly 4 µl 6/4 fold concentrated substrate and 6/4 fold concentrated ATP in 1 fold concentrated reaction buffer are added to each well of the assay plate. Subsequently 67 nl 1000 fold concentrated test compound in 100 % DMSO are added to each well except to C- and C+ wells using pin tool. Then 67 nl 100 % DMSO are pipetted to C- (no kinase, no compound) and C+ (no compound) wells using pin-tool and 2 µl reaction buffer are added to C- wells. […] Finally, after incubation for 40 min at room temperature the luminescence intensity was measured. […]

Here are results for two molecules from patent EP2818471A1, “Nitrogen bicyclic compounds as inhibitors for Scyl1 and Grk5” (Max-Planck-Gesellschaft zur Förderung der Wissenschaften …, priority 2013, dated 2014).

Each structure is given as a SMILES string.

T1 sequence (P34947 whole entry): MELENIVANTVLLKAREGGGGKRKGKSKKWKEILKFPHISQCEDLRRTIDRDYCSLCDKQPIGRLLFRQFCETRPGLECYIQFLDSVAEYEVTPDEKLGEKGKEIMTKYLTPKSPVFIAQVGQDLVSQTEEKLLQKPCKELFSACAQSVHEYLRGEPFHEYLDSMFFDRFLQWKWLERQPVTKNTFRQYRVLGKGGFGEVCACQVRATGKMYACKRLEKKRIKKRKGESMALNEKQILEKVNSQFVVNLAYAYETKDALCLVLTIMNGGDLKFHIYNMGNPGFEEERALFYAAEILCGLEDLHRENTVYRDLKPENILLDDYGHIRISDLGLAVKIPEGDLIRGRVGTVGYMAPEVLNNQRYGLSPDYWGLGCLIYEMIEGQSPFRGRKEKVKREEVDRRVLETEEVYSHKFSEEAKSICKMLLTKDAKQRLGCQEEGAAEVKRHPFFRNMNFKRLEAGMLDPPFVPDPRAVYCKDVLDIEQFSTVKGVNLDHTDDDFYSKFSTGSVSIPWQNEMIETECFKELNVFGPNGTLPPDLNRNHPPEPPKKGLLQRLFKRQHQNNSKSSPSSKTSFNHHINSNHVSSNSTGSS

On to `COc1cc(-c2ccc3ncc(-c4cccnc4)n3n2)cc(OC)c1OC` [compound 10, 3-(3-pyridyl)-6-(3,4,5-trimethoxyphenyl)imidazo[1,2-b]pyridazine], for which the toxic effect entry in data set [1] is recorded as “no toxic effect at all”.
In turn, `NC(=O)c1ccc(-c2cnc3ccc(Cc4ccc(F)cc4)nn23)cc1` [compound 1, 4-[6-[(4-fluorophenyl)methyl]imidazo[1,2-b]pyridazin-3-yl]benzamide] returned an IC50 in data set [2] of 20 to 80 µM.
